Laboratory results: US9028858B2 (Coloplast A/S, priority 2003, dated 2015)
Like-named read-outs stand apart in the source and are kept apart here.

Columns and labels:
[1] = Various stabilizers: degradation of H2O2 at pH 4, 5.5 and 7; details: pH 7; no stabilizer; 25 mM citric acid, approx. 1% H2O2
Protocol: Therefore the investigation of the influence of the pH-value on the stability in our system was included in the study.
24 different kinds of swelling media containing different stabilizers (one without stabilizer) and 3 different pH-values (pH 4, 5.5 and 7) were prepared. […] The concentration of sodium chloride in each of these three swelling media was 0.7% (w/w). Sodium chloride was tested because it could be used as an osmolality increasing agent. […] Two different kinds of material for the stick-pack were used, one with “peel” and one with “non-peel”. […] The irradiation dose was 2*26 kGy.
The stick-pack with “peel” was a laminated material consisting of PETP (12 μm), aluminium (9 μm) and polyethylene peel (polyethylene+10% polybutylene) (70 μm). […] The stick-packs were made out of a stamped area of 13×35 mm that was welded in the longitudinal direction by 1×3 units on a welder. It was welded by 2×2.2 units across in one end of the stick-pack, and in the other end by 4.0 bar, 130° C. and 3.5 s (breakable seal).
The stick-packs were stored for stability testing at 23° C. and 40° C. Samples were taken out after irradiation and after 2 and 4 weeks at 40° C. and 8 and 16 weeks at 23° C.

[2] = hydrogen peroxide taken alone
[3] = for %-point H2O2 after storage / Appearance of catheter (0–5; 0 = perfect, 5 = unacceptable) / Appearance of swelling medium (0–5) / Loss of H2O2 (%/day) / pH after storage: 1 week
[4] = 23° C., 8 months, pH 7 without buffer
Protocol: Samples were β-sterilized at 50 kGy and stored at 23° C. for 8 months.
The results were calculated from 86 separate samples (mean value±standard deviation of mean value) (Table 5.1).

[5] = initial 0.2%-point H2O2, 60° C., no PEG 2000
[6] = initial 0.2%-point H2O2, 80° C., no PEG 2000
[7] = initial 0.4%-point H2O2, 60° C., no PEG 2000
[8] = initial 0.4%-point H2O2, 80° C., no PEG 2000
[9] = initial 0.8%-point H2O2, 60° C., no PEG 2000
[10] = initial 0.8%-point H2O2, 80° C., no PEG 2000
[11] = initial 1.6%-point H2O2, 60° C., 6% PEG 2000
[12] = initial 1.6%-point H2O2, 60° C., no PEG 2000
[13] = initial 1.6%-point H2O2, 80° C., 6% PEG 2000
[14] = initial 1.6%-point H2O2, 80° C., no PEG 2000

OO [Std H2O2, hydrogen peroxide]
calculated amount of degraded H2O2 after 2 years of storage at 23° C. [1]: 54.7%
speed of effect compared to a range of other anti-microbial agents [2]: rapid
H2O2 disappeared during storage ([3]; 1 week at 80° C., samples not containing PEG 2000, regardless of initial H2O2 concentration): 25-30%
%-point H2O2 after storage [3, 5]: 0.20 %-point
Appearance of catheter (0–5; 0 = perfect, 5 = unacceptable) [3, 5]: 0
Appearance of swelling medium (0–5) [3, 5]: 0
Loss of H2O2 (%/day) [3, 5]: 0.3 %/day
pH after storage [3, 5]: 5.64
%-point H2O2 after storage [3, 6]: 0.15 %-point
Appearance of catheter (0–5; 0 = perfect, 5 = unacceptable) [3, 6]: 0
Appearance of swelling medium (0–5) [3, 6]: 0
Loss of H2O2 (%/day) [3, 6]: 3.5 %/day
pH after storage [3, 6]: 5.63
%-point H2O2 after storage [3, 7]: 0.37 %-point
Appearance of catheter (0–5; 0 = perfect, 5 = unacceptable) [3, 7]: 0
Appearance of swelling medium (0–5) [3, 7]: 0
Loss of H2O2 (%/day) [3, 7]: 1.0 %/day
pH after storage [3, 7]: 5.63
%-point H2O2 after storage [3, 8]: 0.29 %-point
Appearance of catheter (0–5; 0 = perfect, 5 = unacceptable) [3, 8]: 0
Appearance of swelling medium (0–5) [3, 8]: 0
Loss of H2O2 (%/day) [3, 8]: 3.8 %/day
pH after storage [3, 8]: 5.79
%-point H2O2 after storage [3, 9]: 0.75 %-point
Appearance of catheter (0–5; 0 = perfect, 5 = unacceptable) [3, 9]: 0
Appearance of swelling medium (0–5) [3, 9]: 0
Loss of H2O2 (%/day) [3, 9]: 0.9 %/day
pH after storage [3, 9]: 5.63
%-point H2O2 after storage [3, 10]: 0.58 %-point
Appearance of catheter (0–5; 0 = perfect, 5 = unacceptable) [3, 10]: 0
Appearance of swelling medium (0–5) [3, 10]: 0
Loss of H2O2 (%/day) [3, 10]: 4.0 %/day
pH after storage [3, 10]: 5.86
%-point H2O2 after storage [3, 11]: 1.25 %-point
Appearance of catheter (0–5; 0 = perfect, 5 = unacceptable) [3, 11]: 1
Appearance of swelling medium (0–5) [3, 11]: 0
Loss of H2O2 (%/day) [3, 11]: 3.2 %/day
pH after storage [3, 11]: 5.13
%-point H2O2 after storage [3, 12]: 1.41 %-point
Appearance of catheter (0–5; 0 = perfect, 5 = unacceptable) [3, 12]: 0
Appearance of swelling medium (0–5) [3, 12]: 0
Loss of H2O2 (%/day) [3, 12]: 1.7 %/day
pH after storage [3, 12]: 5.71
%-point H2O2 after storage [3, 13]: 0.02 %-point
Appearance of catheter (0–5; 0 = perfect, 5 = unacceptable) [3, 13]: 3
Appearance of swelling medium (0–5) [3, 13]: 0
Loss of H2O2 (%/day) [3, 13]: 14.1 %/day
pH after storage [3, 13]: 3.46
%-point H2O2 after storage [3, 14]: 1.13 %-point
Appearance of catheter (0–5; 0 = perfect, 5 = unacceptable) [3, 14]: 0
Appearance of swelling medium (0–5) [3, 14]: 0
Loss of H2O2 (%/day) [3, 14]: 4.2 %/day
pH after storage [3, 14]: 6.28
H2O2 loss per day (%) ([4]; initial 1% H2O2, 0% PVP C-15, 50 kGy): 0.088 ± 0.029%
H2O2 loss per day (%) ([4]; initial 1% H2O2, 6% PVP C-15, 50 kGy): 0.167 ± 0.048%
